Counter-ions that a name gives are not always drawn. Like-named read-outs stand apart in the source and are kept apart here.
What was measured:
[1] = target: T1, reuptake of serotonine(5-HT) in synaptosomes (Rattus norvegicus, UniProt P31652); assay: Inhibition of serotonine (5-HT) reuptake in synaptosomes; type: biochemical
T1 construct: in synaptosomes as described in WO 97/16451; from tissue
Description: (§1) A number of compounds were tested for their ability to inhibit the reuptake of the monoamine neurotransmitters dopamine(DA) noradrenaline(NA) and serotonine(5-HT) in synaptosomes as described in WO 97/16451.
(§2) The test values are given as IC50 (the concentration (μM) of the test substance which inhibits the specific binding of ^3H-DA, ^3H-NA, or ^3H-5-HT by 50%).

[2] = target: T2, reuptake of dopamine(DA) in synaptosomes (Rattus norvegicus, UniProt P23977); assay: Inhibition of dopamine (DA) reuptake in synaptosomes; type: biochemical
T2 construct: in synaptosomes as described in WO 97/16451; from tissue
T2 sequence (P23977 whole entry): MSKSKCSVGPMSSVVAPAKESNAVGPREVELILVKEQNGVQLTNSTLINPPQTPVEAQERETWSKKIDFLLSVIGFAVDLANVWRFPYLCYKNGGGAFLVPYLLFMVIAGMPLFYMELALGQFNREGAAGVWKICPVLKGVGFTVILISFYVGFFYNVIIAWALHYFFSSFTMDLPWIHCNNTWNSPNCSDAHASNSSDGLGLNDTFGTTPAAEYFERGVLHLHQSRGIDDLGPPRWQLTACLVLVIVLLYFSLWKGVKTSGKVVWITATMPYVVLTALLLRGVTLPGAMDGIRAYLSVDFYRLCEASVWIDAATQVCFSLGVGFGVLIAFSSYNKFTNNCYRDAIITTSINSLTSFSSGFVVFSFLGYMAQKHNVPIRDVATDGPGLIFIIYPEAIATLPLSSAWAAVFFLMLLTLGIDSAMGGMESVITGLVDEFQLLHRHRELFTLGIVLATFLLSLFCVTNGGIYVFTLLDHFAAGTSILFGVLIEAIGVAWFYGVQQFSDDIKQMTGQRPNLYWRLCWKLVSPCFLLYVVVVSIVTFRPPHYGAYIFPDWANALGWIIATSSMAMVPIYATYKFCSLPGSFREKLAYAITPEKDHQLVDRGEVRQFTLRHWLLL
Description: as §1, §2

[3] = synaptosomes, 3H-DA, read-out: DA-uptake IC50

T1 sequence (P31652 whole entry): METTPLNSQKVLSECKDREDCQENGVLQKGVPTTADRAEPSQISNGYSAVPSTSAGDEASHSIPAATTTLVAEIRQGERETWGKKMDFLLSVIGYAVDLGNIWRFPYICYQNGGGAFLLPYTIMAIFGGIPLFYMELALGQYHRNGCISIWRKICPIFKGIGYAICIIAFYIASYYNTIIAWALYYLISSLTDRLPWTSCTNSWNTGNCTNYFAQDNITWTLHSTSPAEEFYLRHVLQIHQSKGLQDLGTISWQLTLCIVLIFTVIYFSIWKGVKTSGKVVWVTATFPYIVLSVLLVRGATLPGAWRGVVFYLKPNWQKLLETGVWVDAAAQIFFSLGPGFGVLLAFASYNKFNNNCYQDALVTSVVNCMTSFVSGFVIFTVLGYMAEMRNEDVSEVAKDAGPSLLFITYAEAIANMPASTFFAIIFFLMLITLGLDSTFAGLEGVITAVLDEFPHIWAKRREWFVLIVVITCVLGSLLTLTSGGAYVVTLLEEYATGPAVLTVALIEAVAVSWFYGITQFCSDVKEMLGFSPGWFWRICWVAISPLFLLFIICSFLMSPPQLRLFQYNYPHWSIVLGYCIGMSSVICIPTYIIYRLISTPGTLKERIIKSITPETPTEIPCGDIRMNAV

SMILES | melting point | IC50 [1] | IC50 [2] | IC50 [2, 3]
CN1C2CCC1[C@H](COc1ccc(Cl)c(Cl)c1)CC2 (some centres unmarked) (as salt: fumarate) | 176 to 180 °C | – | – | –
CN1C2CCC1[C@H](COc1ccc(Cl)c(Cl)c1)[C@@H](c1ccc(Cl)c(Cl)c1)C2 (stereo partly drawn) (as salt: fumaric acid salt) [Compound 15a, (2R,3S)-2-(3,4-Dichloro-phenoxymethyl)-3-(3,4-dichloro-phenyl)-8-methyl-8-aza-bicyclo[3.2.1]octane] | 215.1 to 217.2 °C | – | – | –
CC(C)[C@@H]1CC2CCC([C@@H]1COc1ccc(Cl)c(Cl)c1)N2C (stereo partly drawn) (as salt: fumaric acid salt) [Compound 16, (2R,3S)-2-(3,4-Dichloro-phenoxymethyl)-3-(2-propyl)-8-methyl-8-aza-bicyclo[3.2.1]octane fumaric acid salt] | 152.3 to 154.5 °C | – | – | –
CN1C2CCC1[C@H](COc1ccc(Cl)c(Cl)c1)[C@@H](c1ccccc1)C2 (stereo partly drawn) [Compound 13a, (2R,3S)-2-(3,4-Dichlorophenoxymethyl)-8-methyl-3-phenyl-8-aza-bicyclo[3.2.1]octane] | – | 0.0004 µM | 0.54 µM | –
CN1C2CCC1[C@H](COc1ccc(Cl)c(Cl)c1)[C@@H](c1ccc(Cl)c(Cl)c1)C2 (stereo partly drawn) [Compound 15a, (2R,3S)-2-(3,4-Dichloro-phenoxymethyl)-3-(3,4-dichloro-phenyl)-8-methyl-8-aza-bicyclo[3.2.1]octane] | – | 0.02 µM | 0.015 µM | –
CC(C)[C@@H]1CC2CCC([C@@H]1COc1ccc(Cl)c(Cl)c1)N2C (stereo partly drawn) [Compound 16, (2R,3S)-2-(3,4-Dichloro-phenoxymethyl)-3-(2-propyl)-8-methyl-8-aza-bicyclo[3.2.1]octane fumaric acid salt] | – | 0.00072 µM | – | > 1 µM
CC(C)C1CC2CCC(N2)C1COc1ccc(Cl)c(Cl)c1 [Compound of Example 10, (2R,3S)-2-(3,4-Dichloro-phenoxymethyl)-3-(2-propyl)-8-H-8-aza-bicyclo[3.2.1]octane fumaric acid salt] | – | 0.009 µM | – | 0.26 µM
